This note sets out measurements from US10278973B2, “Hydroxyl purine compounds and use thereof” (GUANGDONG RAYNOVENT BIOTECH CO., LTD., priority 2015, dated 2019).

For the test, the target named is T1, Full length human PDE2A protease (Homo sapiens, UniProt O00408).
T1 construct: Full length human PDE2A protease; GST (N); host or cells: insect Sf9 cells (baculovirus)
Briefly: In vitro evaluation of PDE2 phosphodiesterase inhibitory activity (Transcreener AMP2/GMP2 fluorescence polarization). The format is biochemical. As to conditions: recombinant full length human PDE2A, substrate 1 μM cGMP, 1 hour at room temperature; read-out: PDE2 phosphodiesterase inhibitory activity. As to the method:
In Vitro Evaluation of PDE2 Phosphodiesterase Inhibitory Activity Experimental objectives: To detect the concentration of AMP/GMP produced in the reaction system by measuring the fluorescence intensity of the fluorescent dye AlexaFluor 633 substituted on AMP/GMP antibody and to calculate the PDE2 phosphodiesterase inhibitory IC50 value of the test compound. Test buffer solution: 10 mM Tris-HCl, pH 7.5, 5 mM MgCl2, 0.01% Brij 35, 1 mM DTT, and 1% DMSO. Enzyme: Full length human PDE2A protease expressed and recombined in insect Sf9 cells with baculovirus using N-terminal GST tag […] Transcreener® AMP^2/GMP^2 antibody, AMP2/GMP2 AlexaFluor 633 fluorescent dye The enzyme solution was prepared with freshly prepared buffer solution and then added to the reaction wells. The DMSO solution of the test compound was added by Echo550 non-contact nanoscale sonicate pipetting system and preincubated for 10 minutes at room temperature. The reaction was initiated by addition of substrate (1 μM cGMP) and allowed to react for one hour at room temperature. The detection system (Transcreener® AMP^2/GMP^2 antibody, AMP2/GMP2 AlexaFluor 633 fluorescent dye) was then added and reacted for 90 minutes at room temperature before fluorescence polarization was detected using Ex/Em 620/688. The intensity of fluorescence polarization was converted to nM concentration by the AMP/GMP standard curve and then relative inhibition of enzyme activity relative to DMSO blank was calculated. IC50 values and curves were calculated using the Prism software package (GraphPad Software, San Diego Calif., USA)

T1 sequence (O00408 whole entry): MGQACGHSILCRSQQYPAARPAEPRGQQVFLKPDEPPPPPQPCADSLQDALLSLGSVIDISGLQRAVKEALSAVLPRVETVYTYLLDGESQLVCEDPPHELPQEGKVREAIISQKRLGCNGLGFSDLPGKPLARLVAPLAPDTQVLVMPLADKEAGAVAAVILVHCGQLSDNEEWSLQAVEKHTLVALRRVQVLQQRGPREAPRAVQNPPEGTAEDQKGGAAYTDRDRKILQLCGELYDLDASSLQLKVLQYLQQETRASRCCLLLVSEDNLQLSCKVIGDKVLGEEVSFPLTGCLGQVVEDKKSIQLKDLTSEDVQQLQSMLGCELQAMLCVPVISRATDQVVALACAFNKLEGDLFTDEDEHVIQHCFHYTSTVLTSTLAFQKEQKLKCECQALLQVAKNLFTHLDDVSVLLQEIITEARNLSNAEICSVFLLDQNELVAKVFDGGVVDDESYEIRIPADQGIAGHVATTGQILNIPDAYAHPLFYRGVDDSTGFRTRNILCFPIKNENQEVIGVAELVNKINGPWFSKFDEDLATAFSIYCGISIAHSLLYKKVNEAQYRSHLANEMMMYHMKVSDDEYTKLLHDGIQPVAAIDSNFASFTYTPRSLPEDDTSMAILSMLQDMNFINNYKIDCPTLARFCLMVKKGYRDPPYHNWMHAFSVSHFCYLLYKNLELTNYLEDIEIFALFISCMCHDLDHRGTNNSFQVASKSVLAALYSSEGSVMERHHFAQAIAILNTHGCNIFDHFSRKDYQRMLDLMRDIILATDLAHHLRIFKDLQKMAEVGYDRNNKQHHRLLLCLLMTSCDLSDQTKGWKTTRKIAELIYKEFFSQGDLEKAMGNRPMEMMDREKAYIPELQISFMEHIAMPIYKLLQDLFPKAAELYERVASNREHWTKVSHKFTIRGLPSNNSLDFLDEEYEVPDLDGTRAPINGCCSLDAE

`Cn1nnc(CCCCn2c(=O)c3c(ncn3C)n(C)c2=O)n1` [Example 38 Isomer 1, 3,7-Dimethyl-1-(4-(2-methyl-2H-tetrazol-5-yl)butyl)-1H-purine-(3H,7H)-dione]: the IC50 is 10 to 50 µM. In the case of `Cc1cc(CCCCn2c(=O)c3c(ncn3C)n(C)c2=O)no1` [Example 20, 3,7-Dimethyl-1-(4-(5-methylisoxazol-3-yl)butyl)-1H-purine-2,6(3H,7H)-dione] it was 10 to 50 µM; in that of `CC(C)c1oncc1Cn1c(=O)c2c(ncn2CC2CC2)n(C)c1=O` [Example 58], 1 to 10 µM; in that of `CCCCn1cnc2c1c(=O)n(CCCCc1cc(C)no1)c(=O)n2C` [Example 55, 7-Butyl-3-methyl-1-(4-(3-methylisoxazol-5-yl)butyl)-1H-purine-2,6(3H,7H)-dione], 1 to 10 µM.

Consider `Cn1cnc2c1c(=O)n(CCCc1nc3ccccc3s1)c(=O)n2C` [Example 43, 1-(3-(Benzo[d]thiazol-2-yl)propyl)-3,7-dimethyl-1H-purine 2,6(3H,7H)-dione], for which the IC50 lay within 10 to 50 µM. The same measure for `CCc1cc(CCn2c(=O)c3c(ncn3C)n(C)c2=O)nn1C` [Example 11 Product 2, 1-(2-(5-Ethyl-1-methyl-1H-pyrazol-3-yl)ethyl)-3,7-dimethyl-1H-purine-2,6(3H,7H)-dione]: 10 to 50 µM; for `Cn1nnnc1CCCCCn1c(=O)c2c(ncn2C)n(C)c1=O` (single isomer, unassigned) [Example 40 Isomer 1, 3,7-Dimethyl-1-(5-(1-methyl-1H-tetrazol-5-yl)pentyl)-1H-purine-(3H,7H)-dione]: 10 to 50 µM; for `Cc1cc(CCCCn2c(=O)c3c(ncn3CC(F)(F)F)n(C)c2=O)on1` [Example 51, 3-Methyl-1-(4-(3-methylisoxazol-5-yl)butyl)-7-(2,2,2-trifluoroethyl)-1H-purine-2,6(3H,7H)-dione]: 10 to 50 µM. As for `Cn1cnc2c1c(=O)n(CCCc1[nH]nc3c1CCCC3)c(=O)n2C` [Example 44], the IC50 is 10 to 50 µM. The same measure for `Cc1cc(CCCCn2c(=O)c3c(ncn3CC3CC3)n(C)c2=O)on1` [Example 56, 7-(Cyclopropylmethyl)-3-methyl-1-(4-(3-methylisoxazol-5-yl)butyl)-1H-purine-2,6(3H,7H)-dione]: 1 to 10 µM. Regarding `Cc1cc(CCCCn2c(=O)c3ccccc3n(C)c2=O)on1` [Example 83, 1-Methyl-3-(4-(3-methylisoxazol-5-yl)butyl)quinazoline-2,4(1H,3H)-dione], the IC50 lay within 10 to 50 µM. In the case of `CCCn1cnc2c1c(=O)n(CCCCc1cc(C)no1)c(=O)n2C` [Example 52, 3-Methyl-1-(4-(3-methylisoxazol-5-yl)butyl)-7-propyl-1H-purine-2,6(3H,7H)-dione] it was 1 to 10 µM; in that of `Cc1cc(CCCCn2c(=O)c3nn(C)cc3n(C)c2=O)on1` [Example 69, 2,4-Dimethyl-6-[4-(3-methylisoxazol-5-yl)-butyl]-2,4-dihydro-pyrazolo[4,3-d]pyrimidine-5,7-dione], 10 to 50 µM.

As for `Cc1cc(CCCCn2c(=O)c3c(ncn3C(C)C)n(C)c2=O)on1` [Example 54, 7-Isopropyl-3-methyl-1-(4-(3-methylisoxazol-5-yl)butyl)-1H-purine-2,6(3H,7H)-dione], the IC50 was 10 to 50 µM.

Take `Cn1ncc(CCCCn2c(=O)c3c(ncn3C)n(C)c2=O)n1` [Example 35, 3,7-Dimethyl-1-(4-(2-methyl-2H-1,2,3-triazol-4-yl)butyl)-1H-purine-(3H,7H)-dione]: the IC50 was 10 to 50 µM. In the case of `Cc1cc(CCCCn2c(=O)c3c(ncn3CC(C)C)n(C)c2=O)on1` [Example 60, 7-Isobutyl-3-methyl-1-(4-(3-methylisoxazol-5-yl)butyl)-1H-purine-2,6(3H,7H)-dione] it was 1 to 10 µM; in that of `Cc1cc(CCCCn2c(=O)c3c(cnn3CC(F)(F)F)n(C)c2=O)on1` [Example 75, 4-Methyl-6-(4-(3-methylisoxazol-5-yl)butyl)-1-(2,2,2-trifluoroethyl)-pyrazolo[4,3-d]pyrimidine-5,7-dione], 10 to 50 µM. Regarding `Cc1cc(CCCCn2c(=O)c3c(cnn3CC3CC3)n(C)c2=O)on1` [Example 81, 1-(Cyclopropylmethyl)-4-methyl-6-(4-(3-methylisoxazol-5-yl)butyl)-pyrazolo[4,3-d]pyrimidin-5,7-dione], the IC50 fell in the range of 10 to 50 µM. The same measure for `Cn1cnc2c1c(=O)n(CCCCc1cn[nH]n1)c(=O)n2C` [Example 34, 1-(4-(2H-1,2,3-triazol-4-yl)butyl)-3,7-dimethyl-1H-purine-2,6(3H,7H)-dione]: 10 to 50 µM; for `Cn1cnc2c1c(=O)n(CCCc1c[nH]c3ccccc13)c(=O)n2C` [Example 41]: 1 to 10 µM. Take `Cc1noc(C)c1Cn1c(=O)c2c(ncn2CC2CC2)n(C)c1=O` [Example 57, 7-(Cyclopropylmethyl)-1-((3,5-dimethylisoxazol-4-yl)methyl)-3-methyl-1H-purine-2,6-(3H,7H)-dione]: the IC50 is 1 to 10 µM.

`Cc1cc(CC2CCCC(n3c(=O)c4c(ncn4C)n(C)c3=O)C2)on1` (stereo not shown) [Example 28]: the IC50 lay within 1 to 10 µM.

Regarding `Cn1nnc(CCCCCn2c(=O)c3c(ncn3C)n(C)c2=O)n1` (single isomer, unassigned) [Example 40 Isomer 2, 3,7-Dimethyl-1-(5-(1-methyl-2H-tetrazol-5-yl)pentyl)-1H-purine-(3H,7H)-dione], the IC50 was in the range of 10 to 50 µM.

Turning to `Cc1cc(CCCCn2c(=O)c3c(ncn3C)n(C)c2=O)n(C)n1` (single isomer, unassigned) [Example 14 Isomer 1, 1-(4-(1,3-dimethyl-1H-pyrazol-5-yl)butyl)-3,7-dimethyl-1H-purine-2,6(3H,7H)-dione], the IC50 lay in the range of 10 to 50 µM. The same measure for `Cn1cnc2c1c(=O)n(CCCCc1cc3ccccc3o1)c(=O)n2C` [Example 42, 1-(4-(Benzofuran-2-yl)butyl)-3,7-dimethyl-1H-purine-2,6(3H,7H)-dione]: 1 to 10 µM. In the case of `Cc1nc(C)c(Cn2c(=O)c3c(ncn3C)n(C)c2=O)s1` [Example 29, 1-((2,4-Dimethylthiazol-5-yl)methyl)-3,7-dimethyl-1H-purine-2,6(3H,7H)-dione] it was 10 to 50 µM; in that of `Cc1cc(CCCCn2c(=O)c3c(ncn3CC3(C)COC3)n(C)c2=O)on1` [Example 61, 3-Methyl-1-(4-(3-methylisoxazol-5-yl)butyl)-7-((3-methyloxetan-3-yl)methyl)-1H-purine-2,6(3H,7H)-dione], 10 to 50 µM; in that of `Cn1cnc2c1c(=O)n(CCCCCc1nn[nH]n1)c(=O)n2C` [Example 39, 1-(5-(2H-tetrazol-5-yl)pentyl)-3,7-dimethyl-1H-purine-2,6(3H,7H)-dione], 10 to 50 µM. `Cc1cc(CCCCn2c(=O)c3c(ncn3C(F)F)n(C)c2=O)on1` (single isomer, unassigned) [Example 49 Isomer 1, 7-(Difluoromethyl)-3-methyl-1-(4-(3-methylisoxazol-5-yl)butyl)-1H-purine-2,6(3H,7H)-dione]: the IC50 was in the range of 10 to 50 µM. In the case of `Cc1cc(-c2ccc(Cn3c(=O)c4c(ncn4C)n(C)c3=O)cc2)on1` [Example 45, 3,7-Dimethyl-1-[4-(3-methylisoxazol-5-yl)-benzyl]-3,7-dihydro-purine-2,6-dione] it was 1 to 10 µM.

In the case of `CC(C)c1oncc1Cn1c(=O)c2c(ncn2C)n(C)c1=O` [Example 22, 1-((5-Isopropylisoxazol-4-yl)methyl)-3,7-dimethyl-1H-purine-2,6(3H,7H)-dione], the IC50 is 10 to 50 µM.
